Laboratory results reported in patent US5278143A, “Prophylactic and therapeutic methods for treating interleukin-mediated edemas” (Trustees of Boston University, priority 1991, dated 1994).
Residues, ends and D or L forms follow the SMILES beside them.

Legend:
IL-2 induced edema [1] = test: IL-2 induced vascular leak syndrome, organ wet to dry (W/D) weight ratios; format: in vivo, rats; settings: for Lung wet to dry weight ratio, effect of agent on IL-2 edema: agent 1 uM co-treatment with 10^6 U/ml IL-2, p<0.05, FIG. 5; for Heart wet to dry weight ratio, effect of agent on IL-2 edema: agent 1 uM co-treatment with 10^6 U/mml IL-2, p<0.01, FIG. 4; for Kidney wet to dry ratio, effect of agent on IL-2 edema: agent 1 uM plus 10^6 U/ml IL-2, FIG. 2; for Liver wet to dry ratio, effect of agent with IL-2: agent 1 uM plus IL-2 co-treatment, FIG. 3; for Spleen wet to dry ratio, effect of agent with IL-2: agent plus 10^6 U/ml IL-2, FIG. 1
Protocol: (§1) 1. Assay Models: Vascular leak syndrome is induced rapidly in adult, male rats (500 g) by a continuous infusion for 1 h of 10^6 units of IL-2 (n=36). Five hours later the animals are killed and edema is quantitated by measuring wet to dry (W/D) ratios for the lungs, kidneys, liver, heart, and spleen.
(§2) 2. Controls: Animals are pretreated with 0.5 ml saline for 30 min. prior to the IL-2 infusion (n=28).
(§3) 3. Experimental Animals: Each animal is pretreated with either Phallin A (antamanide) or Phallin B (phalloidin), 20 ug/0.5 ml saline as a single bolus 30 min. prior to the infusion of IL-2 (n=24). Each animal then receives at 30 min. intervals a booster injection of 20 ug of Phallin A or Phallin B for the duration (6 h) of the experiments.

IL-2 induced edema [2] = test: IL-2 induced vascular leak syndrome, protein concentration of bronchoalveolar lavage fluid; format: in vivo, rats; settings: agent 1 uM and 10^6 U/ml Interleukin-2, compared with 10^6 U/ml Interleukin-2 alone, FIG. 6
Protocol: as §1, §2, §3
4. Protein Analysis: Samples obtained by bronchoalveolar lavage are quantitated for protein concentration as another means of determining the relative loss of barrier integrity in the experimental animals compared to controls.

phalloidin poisoning = settings: cited from earlier work
IL-2 induced edema [3] = test: IL-2 induced vascular leak syndrome, organ wet to dry (W/D) weight ratios; format: in vivo, rats; settings: for Spleen wet to dry ratio (splenic edema) / Kidney wet to dry ratio (renal edema) / Liver wet to dry ratio (hepatic edema) / Heart wet to dry weight ratio (cardiac edema) / Lung wet to dry weight ratio (pulmonary edema): agent alone, 1 uM; for Spleen wet to dry ratio (splenic edema): FIG. 1; for Kidney wet to dry ratio (renal edema): FIG. 2; for Liver wet to dry ratio (hepatic edema): FIG. 3; for Heart wet to dry weight ratio (cardiac edema): FIG. 4; for Lung wet to dry weight ratio (pulmonary edema): FIG. 5
albino mice = settings: intramuscularly; cited from earlier work
mice or rats = settings: high dose levels, intramuscularly; cited from earlier work

Molecule	Lung wet to dry weight ratio, effect of agent on IL-2 edema (IL-2 induced edema [1])	Heart wet to dry weight ratio, effect of agent on IL-2 edema (IL-2 induced edema [1])	Kidney wet to dry ratio, effect of agent on IL-2 edema (IL-2 induced edema [1])	Liver wet to dry ratio, effect of agent with IL-2 (IL-2 induced edema [1])	Spleen wet to dry ratio, effect of agent with IL-2 (IL-2 induced edema [1])	Protein concentration in bronchoalveolar lavage fluid (IL-2 induced edema [2])	Spleen wet to dry ratio (splenic edema) (IL-2 induced edema [3])	Kidney wet to dry ratio (renal edema) (IL-2 induced edema [3])	Liver wet to dry ratio (hepatic edema) (IL-2 induced edema [3])	Heart wet to dry weight ratio (cardiac edema) (IL-2 induced edema [3])	Lung wet to dry weight ratio (pulmonary edema) (IL-2 induced edema [3])	also measured
CC(C)[C@@H]1NC(=O)[C@H](Cc2ccccc2)NC(=O)[C@H](Cc2ccccc2)NC(=O)[C@@H]2CCCN2C(=O)[C@@H]2CCCN2C(=O)[C@H](Cc2ccccc2)NC(=O)[C@H](Cc2ccccc2)NC(=O)[C@H](C)NC(=O)[C@@H]2CCCN2C(=O)[C@@H]2CCCN2C1=O [antamanide] (cyclo(AFFPPFFVPP))	significantly reduced	significantly reduced	signnificantly improved (p<0.05)	No significant change in wet/dry weight ratio	remained unmodified	drastically reduced the accumulation and concentration of protein	did not produce any significant splenic edema	did not produce any significant renal edema	did not produce any significant hepatic edema	did not produce any significant cardiac edema	did not produce any significant pulmonary edema	Lung wet to dry weight ratio, effect of agent on IL-2 edema (IL-2 induced edema [1]; listed as Phallin A): prevented IL-2 induced edema; Heart wet to dry weight ratio, effect of agent on IL-2 edema (IL-2 induced edema [1]; listed as Phallin A): prevented IL-2 induced edema; Kidney wet to dry ratio, effect of agent on IL-2 edema (IL-2 induced edema [1]; listed as Phallin A): prevented IL-2 induced edema; Liver wet to dry ratio, effect of agent with IL-2 (IL-2 induced edema [1]; listed as Phallin A): appear unaffected; toxicity of the substance itself (phalloidin poisoning; in vivo): completely non-toxic of itself; effect on toxic effects of fatal doses of phalloidin (phalloidin poisoning; therapeutic doses): capable of actually annulling the toxic effects of fatal doses of phalloidin; Spleen wet to dry ratio, effect of agent with IL-2 (IL-2 induced edema [3]; agent plus 10^6 U/ml IL-2, FIG. 1, listed as Phallin A): appear unaffected
Phalloidin	significantly reduced	significantly reduced	significantly (p<0.05) worsened	produced significant (p<0.05) edema	remained unmodified	drastically reduced the accumulation and concentration of protein	did not produce any significant splenic edema	did not produce any significant renal edema	did not produce any significant hepatic edema	did not produce any significant cardiac edema	did not produce any significant pulmonary edema	Lung wet to dry weight ratio, effect of agent on IL-2 edema (IL-2 induced edema [1]; listed as Phallin B): decreases IL-2 induced edema; Heart wet to dry weight ratio, effect of agent on IL-2 edema (IL-2 induced edema [1]; listed as Phallin B): decreases IL-2 induced edema; Kidney wet to dry ratio, effect of agent on IL-2 edema (IL-2 induced edema [1]; listed as Phallin B): apparently produces edema; Liver wet to dry ratio, effect of agent with IL-2 (IL-2 induced edema [1]; listed as Phallin B): apparently produces edema; LD50 dose (albino mice): 3.3 micrograms per gram of body weight; time to death (mice or rats): death of mice or rats within one or two hours
